Data reported in patent US8921267B2, “Safening 6-(trisubstituted phenyl)-4-amino-2-pyridinecarboxylate herbicide injury on cereal crops” (Dow AgroSciences LLC, priority 2008, dated 2014).

What was measured:
[1] = system: wheat (Triticum aestivum L; TRZAS); assay: Postemergence herbicidal safening, greenhouse, visual injury: wheat; assay type: in vivo; details: for TRZAS Ob: applied alone
Protocol: (§1) Evaluation of Postemergence Herbicidal Safening in Cereal Crops
(§2) Seeds of the desired test plant species were planted in Sun Gro MetroMix® 306 planting mixture, which typically has a pH of 6.0 to 6.8 and an organic matter content of about 30 percent, in plastic pots with a surface area of 103.2 square centimeters (cm^2). When required to ensure good germination and healthy plants, a fungicide treatment and/or other chemical or physical treatment was applied. The plants were grown for 7-36 days (d) in a greenhouse with an approximate 14-hour (h) photoperiod which was maintained at about 18° C. during the day and 17° C. during the night. Nutrients and water were added on a regular basis and supplemental lighting was provided with overhead metal halide 1000-Watt lamps as necessary. The plants were employed for testing when they reached the second or third true leaf stage.
(§3) Weighed amounts of esters (methyl) or salts (TEA [triethylammonium], K [potassium]) of 4-amino-3-chloro-6-(4-chloro-2-fluoro-3-methoxyphenyl)pyridine-2-carboxylic acid (Compound 1) were dissolved in a volume of 97:3 volume/volume (v/v) acetone/dimethylsulfoxide (DMSO) to obtain stock solutions. […] The concentrated stock solutions were diluted with an aqueous mixture of 1.5% v/v of Agri-dex crop oil concentrate to provide the appropriate application rates. Compound requirements are based upon a 12 mL application volume at a rate of 187 liters per hectare (L/ha). Stocks solutions of the safeners were prepared following the same procedure. Spray solutions of the safeners and experimental compound mixtures were prepared by adding the stock solutions to the appropriate amount of dilution solution to form a 12 mL spray solution with active ingredients in two-way combinations. Formulated compounds were applied to the plant material with an overhead Mandel track sprayer equipped with 8002E nozzles calibrated to deliver 187 L/ha over an application area of 0.503 square meters (m^2) at a spray height of 18 inches (43 centimeters (cm)) above average plant canopy. Control plants were sprayed in the same manner with the solvent blank.
(§4) The treated plants and control plants were placed in a greenhouse as described above and watered by sub-irrigation to prevent wash-off of the test compounds. After 20-22 d, the condition of the test plants as compared with that of the control plants was determined visually and scored on a scale of 0 to 100 percent where 0 corresponds to no injury and 100 corresponds to complete kill.
(§5) Colby's equation was used to determine the herbicidal effects expected from the mixtures (Colby, S. R. Calculation of the synergistic and antagonistic response of herbicide combinations. Weeds 1967, 15, 20-22.).
(§6) The following equation was used to calculate the expected activity of mixtures containing two active ingredients, A and B: Expected=A+B−(A×B/100)
(§7) A=observed efficacy of active ingredient A at the same concentration as used in the mixture.
(§8) B=observed efficacy of active ingredient B at the same concentration as used in the mixture.

[2] = system: purple deadnettle (Lamium purpureum L; LAMPU); assay: Postemergence herbicidal activity, greenhouse, visual injury: purple deadnettle; assay type: in vivo; set-up: key: visual injury, 0–100%: 0 = no injury, 100 = complete kill
Protocol: as §1, §2, §3, §4, §5, §6, §7, §8

[3] = system: wheat (Triticum aestivum L; TRZAW); assay: Postemergence herbicidal safening, greenhouse, visual injury: wheat (TRZAW); assay type: in vivo
Protocol: as §1, §2, §3, §4, §5, §6, §7, §8

[4] = system: durum wheat (Triticum durum L; TRZDU); assay: Postemergence herbicidal safening, greenhouse, visual injury: durum wheat; assay type: in vivo
Protocol: as §1, §2, §3, §4, §5, §6, §7, §8

[5] = system: corn poppy (Papaver rhoeas L; PAPRH); assay: Postemergence herbicidal activity, greenhouse, visual injury: corn poppy; assay type: in vivo; details: for PAPRH Ob: applied alone
Protocol: as §1, §2, §3, §4, §5, §6, §7, §8

[6] = system: barley (Hordeum vulgare L; HORVS); assay: Postemergence herbicidal safening, greenhouse, visual injury: barley; assay type: in vivo; details: for HORVS Ob: applied alone
Protocol: as §1, §2, §3, §4, §5, §6, §7, §8

[7] = system: barley (HORVW); assay: Postemergence herbicidal safening, greenhouse, visual injury: barley (HORVW)
[8] = system: Russian thistle (Salsola iberica L; SASKR); assay: Postemergence herbicidal activity, greenhouse, visual injury: Russian thistle; assay type: in vivo; details: applied alone
Protocol: as §1, §2, §3, §4, §5, §6, §7, §8

[9] = system: chickweed (Stellaria media L; STEME); assay: Postemergence herbicidal activity, greenhouse, visual injury: chickweed; assay type: in vivo; details: applied alone
Protocol: as §1, §2, §3, §4, §5, §6, §7, §8

[10] = system: bird's-eye speedwell (Veronica persica L; VERPE); assay: Postemergence herbicidal activity, greenhouse, visual injury: bird's-eye speedwell; assay type: in vivo; details: applied alone
Protocol: as §1, §2, §3, §4, §5, §6, §7, §8

[11] = system: wild pansy (Viola tricolor L; VIOTR); assay: Postemergence herbicidal activity, greenhouse, visual injury: wild pansy; assay type: in vivo; details: applied alone
Protocol: as §1, §2, §3, §4, §5, §6, §7, §8

[12] = system: cleavers (Galium aparine L; GALAP); assay: Postemergence herbicidal activity, greenhouse, visual injury: cleavers; assay type: in vivo; details: applied alone
Protocol: as §1, §2, §3, §4, §5, §6, §7, §8

[13] = system: wild buckwheat (Polygonum convolvulus L; POLCO); assay: Postemergence herbicidal activity, greenhouse, visual injury: wild buckwheat; assay type: in vivo; details: applied alone
Protocol: as §1, §2, §3, §4, §5, §6, §7, §8

O=C(O)C1=NOC(c2ccccc2)(c2ccccc2)C1 [Isoxadifen]
0: TRZAS Ob (Observed values) ([1]; safener 4.4 g/ha alone) | TRZAS Ob (Observed values) ([1]; safener 8.8 g/ha alone) | TRZAS Ob (Observed values) ([1]; safener 17.5 g/ha alone) | TRZAS Ob (Observed values) ([1]; safener 35 g/ha alone) | LAMPU Ob (Observed values) ([2]; safener 4.4 g/ha alone) | LAMPU Ob (Observed values) ([2]; safener 8.8 g/ha alone) | LAMPU Ob (Observed values) ([2]; safener 17.5 g/ha alone) | LAMPU Ob (Observed values) ([2]; safener 35 g/ha alone) | PAPRH Ob (Observed values) ([5]; safener 4.4 g/ha alone) | PAPRH Ob (Observed values) ([5]; safener 8.8 g/ha alone) | PAPRH Ob (Observed values) ([5]; safener 17.5 g/ha alone) | PAPRH Ob (Observed values) ([5]; safener 35 g/ha alone) | HORVS Ob (Observed values) ([6]; safener 4.4 g/ha alone) | HORVS Ob (Observed values) ([6]; safener 8.8 g/ha alone) | HORVS Ob (Observed values) ([6]; safener 17.5 g/ha alone) | HORVS Ob (Observed values) ([6]; safener 35 g/ha alone)
0%: TRZAW Ob (Observed values) ([3]; safener 4.4 g/ha alone) | TRZAW Ob (Observed values) ([3]; safener 8.8 g/ha alone) | TRZAW Ob (Observed values) ([3]; safener 17.5 g/ha alone) | TRZAW Ob (Observed values) ([3]; safener 35 g/ha alone) | TRZDU Ob (Observed values) ([4]; safener 4.4 g/ha alone) | TRZDU Ob (Observed values) ([4]; safener 8.8 g/ha alone) | TRZDU Ob (Observed values) ([4]; safener 17.5 g/ha alone) | TRZDU Ob (Observed values) ([4]; safener 35 g/ha alone) | HORVW Ob (Observed values) ([7]; safener 4.4 g/ha alone) | HORVW Ob (Observed values) ([7]; safener 8.8 g/ha alone) | HORVW Ob (Observed values) ([7]; safener 17.5 g/ha alone) | HORVW Ob (Observed values) ([7]; safener 35 g/ha alone)

CCOC(=O)C1=NN(c2ccc(Cl)cc2Cl)C(C)(C(=O)OCC)C1 (centres unmarked) [Mefenpyr-diethyl]
0%: TRZAS Ob ([1]; 17.5 g/ha) | TRZAS Ob ([1]; 35 g/ha) | TRZAS Ob ([1]; 70 g/ha) | TRZAS Ob ([1]; 140 g/ha) | TRZAW Ob (Observed values) ([3]; safener 4.4 g/ha alone) | TRZAW Ob (Observed values) ([3]; safener 8.8 g/ha alone) | TRZAW Ob (Observed values) ([3]; safener 17.5 g/ha alone) | TRZAW Ob (Observed values) ([3]; safener 35 g/ha alone) | TRZDU Ob (Observed values) ([4]; safener 4.4 g/ha alone) | TRZDU Ob (Observed values) ([4]; safener 8.8 g/ha alone) | TRZDU Ob (Observed values) ([4]; safener 17.5 g/ha alone) | TRZDU Ob (Observed values) ([4]; safener 35 g/ha alone) | HORVS Ob ([6]; 17.5 g/ha) | HORVS Ob ([6]; 35 g/ha) | HORVS Ob ([6]; 70 g/ha) | HORVS Ob ([6]; 140 g/ha) | HORVW Ob (Observed values) ([7]; safener 4.4 g/ha alone) | HORVW Ob (Observed values) ([7]; safener 8.8 g/ha alone) | HORVW Ob (Observed values) ([7]; safener 17.5 g/ha alone) | HORVW Ob (Observed values) ([7]; safener 35 g/ha alone)
0: SASKR Ob ([8]; 17.5 g/ha) | SASKR Ob ([8]; 35 g/ha) | SASKR Ob ([8]; 70 g/ha) | SASKR Ob ([8]; 140 g/ha) | TRZAS Ob (Observed values) ([1]; safener 4.4 g/ha alone) | TRZAS Ob (Observed values) ([1]; safener 8.8 g/ha alone) | TRZAS Ob (Observed values) ([1]; safener 17.5 g/ha alone) | TRZAS Ob (Observed values) ([1]; safener 35 g/ha alone) | LAMPU Ob (Observed values) ([2]; safener 4.4 g/ha alone) | LAMPU Ob (Observed values) ([2]; safener 8.8 g/ha alone) | LAMPU Ob (Observed values) ([2]; safener 17.5 g/ha alone) | LAMPU Ob (Observed values) ([2]; safener 35 g/ha alone) | STEME Ob ([9]; 17.5 g/ha) | STEME Ob ([9]; 35 g/ha) | STEME Ob ([9]; 70 g/ha) | STEME Ob ([9]; 140 g/ha) | VERPE Ob ([10]; 17.5 g/ha) | VERPE Ob ([10]; 35 g/ha) | VERPE Ob ([10]; 70 g/ha) | VERPE Ob ([10]; 140 g/ha) | VIOTR Ob ([11]; 17.5 g/ha) | VIOTR Ob ([11]; 35 g/ha) | VIOTR Ob ([11]; 70 g/ha) | VIOTR Ob ([11]; 140 g/ha) | PAPRH Ob ([5]; 17.5 g/ha) | PAPRH Ob ([5]; 35 g/ha) | PAPRH Ob ([5]; 70 g/ha) | PAPRH Ob ([5]; 140 g/ha) | PAPRH Ob (Observed values) ([5]; safener 4.4 g/ha alone) | PAPRH Ob (Observed values) ([5]; safener 8.8 g/ha alone) | PAPRH Ob (Observed values) ([5]; safener 17.5 g/ha alone) | PAPRH Ob (Observed values) ([5]; safener 35 g/ha alone) | GALAP Ob ([12]; 17.5 g/ha) | GALAP Ob ([12]; 35 g/ha) | GALAP Ob ([12]; 70 g/ha) | GALAP Ob ([12]; 140 g/ha) | HORVS Ob (Observed values) ([6]; safener 4.4 g/ha alone) | HORVS Ob (Observed values) ([6]; safener 8.8 g/ha alone) | HORVS Ob (Observed values) ([6]; safener 17.5 g/ha alone) | HORVS Ob (Observed values) ([6]; safener 35 g/ha alone) | POLCO Ob ([13]; 17.5 g/ha) | POLCO Ob ([13]; 35 g/ha) | POLCO Ob ([13]; 70 g/ha) | POLCO Ob ([13]; 140 g/ha)
